Experimental data taken from article PMC11188305, “Reproductive and fetal toxicity studies of histamine H3 receptor antagonist DL76 used in mice to prevent maximal electroshock-induced seizure” (Frontiers in Pharmacology, 2024).

Test system: C57/B6 mouse embryos
Assay: Reproductive studies: maternal, fetal and gross/visceral malformation observations after treatment on GD-8 or GD-13
Type: in vivo
Conditions: for Placental weight, IUGR −1SD / Placental weight, IUGR −2SD: fraction (percentage); for Fetal weight, IUGR −1SD / Fetal weight, IUGR −2SD: fraction of fetuses (percentage); for Number of female embryos / Number of male embryos: number (percentage); for Exomphalos / Eye open / Kinky tail / Left/right kidney hypo/descended / Mandible hypoplasia / Maxilla hypoplasia / Microtia/low set microtia / Undescended testis: number of embryos (percentage); for Live fetus/litter / Resorption/litter: parentheses contain percentages
Experimental: Reproductive studies were conducted in adult female mice, averaging 30 gm in weight and 6 weeks in age ([Padmanabhan et al., 2006]; [Bastaki et al., 2018]). Following successful mating, indicated by vaginal plug observation, the plug-positive day was considered gestation day 0 (GD-0). DL76 was administered at various doses (7.5 mg/kg, 15 mg/kg, 30 mg/kg, and 60 mg/kg) through single i.p. injections and three 15 mg/kg injections in 1 day to mouse groups on GD-8 and GD-13 (Tables 1, 2). The control group was injected with normal saline. Appropriate formation of different organs occurs in specific periods of the development of the mouse. These two periods were selected because GD-8 is known to be a critical period for the induction of neural tube defects, craniofacial malformations, and the development of other organs, whereas on GD-13, the retina and other parts are being formed, and most other organs have been formed. The number of implantations, fetal deaths, and resorptions was recorded. Fetal and placental weights were documented separately. After blotting dry, the fetuses were weighed and fixed in 95% ethanol. The reproductive toxicological effects of DL76 were assessed by observing gross and visceral malformations, following [Sterz and Lehmann (1985)], [Abdulrazzaq et al. (1997)], [Padmanabhan et al. (2003)], and [Padmanabhan et al. (2006)].
Deformities of the embryos were identified according to a modified method of [Sterz and Lehmann (1985)], [Abdulrazzaq et al. (1997)], and [Bass et al. (2020)]. Accordingly, the embryos were removed from the 95% ethanol, and the lower part of the abdomen was cut using a razor blade. All organs were checked for abnormalities with a stereo dissecting microscope, and finally, the organs were removed by using forceps.
Statistical analyses employed SPSS 26.0 (IBM Middle East, Dubai, UAE). Data were presented as means ± SEM. […] Fetal abnormality data were presented as counts and percentages. Fisher’s exact test compared the percentages of abnormalities between the control group (saline) and the different dose groups. All tests were two-tailed, and significance was set at p < 0.05.

For `CC(C)(C)c1ccc(OCCCN2CCCCC2)cc1` [DL76, 1-(3-(4-tert-butyl-phenoxy)propyl) piperidine], the “Fetal weight/Litter (g) (Mean ± SD)” value (7.5 mg/kg i.p. on GD-8) was 1.143 ± 0.107 g, the Fetuses/litter (7.5 mg/kg i.p. on GD-8) was 7.714 ± 1.890 and the “Placental weight/Litter (g) (mean ± SD)” value (7.5 mg/kg i.p. on GD-8) was 0.109 ± 0.11 g. The “Placental weight, IUGR −1SD” value (7.5 mg/kg i.p. on GD-8) was 0, the “Placental weight, IUGR −2SD” value (7.5 mg/kg i.p. on GD-8) was 0 and the “Fetal weight, IUGR −1SD” value (7.5 mg/kg i.p. on GD-8) was 0. For the same compound, the “Fetal weight, IUGR −2SD” value (7.5 mg/kg i.p. on GD-8) was 0, the “Number of female embryos” value (7.5 mg/kg i.p. on GD-8) was 19 (43.2) and the “Number of male embryos” value (7.5 mg/kg i.p. on GD-8) was 25 (56.8). The Exomphalos (7.5 mg/kg i.p. on GD-8) was 0, the Eye open (7.5 mg/kg i.p. on GD-8) was 2 (4.5) and the Kinky tail (7.5 mg/kg i.p. on GD-8) was 0. The Left/right kidney hypo/descended (7.5 mg/kg i.p. on GD-8) was 1 (2.3), the Mandible hypoplasia (7.5 mg/kg i.p. on GD-8) was 3 (6.8) and the Maxilla hypoplasia (7.5 mg/kg i.p. on GD-8) was 3 (6.8). The Microtia/low set microtia (7.5 mg/kg i.p. on GD-8) was 2 (4.5), the Undescended testis (7.5 mg/kg i.p. on GD-8) was 2 (4.5) and the Live fetus/litter (7.5 mg/kg i.p. on GD-8) was 6.289 (81.48). For the same compound, the Resorption/litter (7.5 mg/kg i.p. on GD-8) was 1.429 (18.51), the “Fetal weight Litter (g) (Mean ± SD)” value (7.5 mg/kg i.p. on GD-13) was 1.018 ± 0.103 g and the Fetuses/litter (7.5 mg/kg i.p. on GD-13) was 8.000 ± 1.291. The “Placental weight/Litter (g) (mean ± SD)” value (7.5 mg/kg i.p. on GD-13) was 0.105 ± 0.011 g, the “Placental weight, IUGR −2SD” value (7.5 mg/kg i.p. on GD-13) was 0 and the “Fetal weight, IUGR −2SD” value (7.5 mg/kg i.p. on GD-13) was 0. For the same compound, the “Number of female embryos” value (7.5 mg/kg i.p. on GD-13) was 27 (54.0), the “Number of male embryos” value (7.5 mg/kg i.p. on GD-13) was 23 (46.0) and the Exomphalos (7.5 mg/kg i.p. on GD-13) was 0. The Eye open (7.5 mg/kg i.p. on GD-13) was 3 (6.0), the Kinky tail (7.5 mg/kg i.p. on GD-13) was 0 and the Left/right kidney hypo/descended (7.5 mg/kg i.p. on GD-13) was 2 (4.0). The Mandible hypoplasia (7.5 mg/kg i.p. on GD-13) was 4 (8.0), the Microtia/low set microtia (7.5 mg/kg i.p. on GD-13) was 2 (4.0) and the Undescended testis (7.5 mg/kg i.p. on GD-13) was 1 (2.0). The Maxilla hypoplasia (7.5 mg/kg i.p. on GD-13, * p < 0.05 vs control) was 4 (8.0)*, the Resorption/litter (7.5 mg/kg i.p. on GD-13) was 0.857 (10.71) and the “Fetal weight/Litter (g) (Mean ± SD)” value (15 mg/kg i.p. on GD-8) was 0.993 ± 0.106 g. For the same compound, the Fetuses/litter (15 mg/kg i.p. on GD-8) was 7.167 ± 2.317, the “Placental weight/Litter (g) (mean ± SD)” value (15 mg/kg i.p. on GD-8) was 0.105 ± 0.009 g and the “Placental weight, IUGR −1SD” value (15 mg/kg i.p. on GD-8) was 0. The “Placental weight, IUGR −2SD” value (15 mg/kg i.p. on GD-8) was 0, the “Fetal weight, IUGR −1SD” value (15 mg/kg i.p. on GD-8) was 0 and the “Number of female embryos” value (15 mg/kg i.p. on GD-8) was 20 (52.6). The “Number of male embryos” value (15 mg/kg i.p. on GD-8) was 18 (47.4), the Exomphalos (15 mg/kg i.p. on GD-8) was 1 (2.6) and the Eye open (15 mg/kg i.p. on GD-8) was 3 (7.9). For the same compound, the Kinky tail (15 mg/kg i.p. on GD-8) was 0, the Left/right kidney hypo/descended (15 mg/kg i.p. on GD-8) was 2 (5.3) and the Mandible hypoplasia (15 mg/kg i.p. on GD-8) was 3 (7.9). The Maxilla hypoplasia (15 mg/kg i.p. on GD-8) was 1 (2.6), the Microtia/low set microtia (15 mg/kg i.p. on GD-8) was 1 (2.6) and the Undescended testis (15 mg/kg i.p. on GD-8) was 0. The Live fetus/litter (15 mg/kg i.p. on GD-8) was 6.338 (88.37), the Resorption/litter (15 mg/kg i.p. on GD-8) was 0.833 (11.62) and the “Fetal weight Litter (g) (Mean ± SD)” value (15 mg/kg i.p. on GD-13) was 0.998 ± 0.063 g. The Fetuses/litter (15 mg/kg i.p. on GD-13) was 7.571 ± 1.272, the “Placental weight/Litter (g) (mean ± SD)” value (15 mg/kg i.p. on GD-13) was 0.113 ± 0.015 g and the “Placental weight, IUGR −2SD” value (15 mg/kg i.p. on GD-13) was 0. The “Fetal weight, IUGR −2SD” value (15 mg/kg i.p. on GD-13) was 0, the “Number of female embryos” value (15 mg/kg i.p. on GD-13) was 18 (45.0) and the “Number of male embryos” value (15 mg/kg i.p. on GD-13) was 22 (55.0). For the same compound, the Exomphalos (15 mg/kg i.p. on GD-13) was 0, the Eye open (15 mg/kg i.p. on GD-13) was 2 (5.0) and the Kinky tail (15 mg/kg i.p. on GD-13) was 0. For the same compound, the Left/right kidney hypo/descended (15 mg/kg i.p. on GD-13) was 1 (2.5), the Mandible hypoplasia (15 mg/kg i.p. on GD-13) was 4 (10.0) and the Maxilla hypoplasia (15 mg/kg i.p. on GD-13) was 3 (7.5). The Microtia/low set microtia (15 mg/kg i.p. on GD-13) was 2 (5.0), the Undescended testis (15 mg/kg i.p. on GD-13) was 1 (2.5) and the Live fetus/litter (15 mg/kg i.p. on GD-13) was 5.714 (75.47). The Resorption/litter (15 mg/kg i.p. on GD-13) was 1.857 (24.53), the “Fetal weight/Litter (g) (Mean ± SD)” value (30 mg/kg i.p. on GD-8) was 1.004 ± 0.047 g and the Fetuses/litter (30 mg/kg i.p. on GD-8) was 8.429 ± 0.787. The “Placental weight/Litter (g) (mean ± SD)” value (30 mg/kg i.p. on GD-8) was 0.097 ± 0.019 g, the “Fetal weight, IUGR −2SD” value (30 mg/kg i.p. on GD-8) was 0 and the “Number of female embryos” value (30 mg/kg i.p. on GD-8) was 27 (52.9). The “Number of male embryos” value (30 mg/kg i.p. on GD-8) was 24 (47.1), the Exomphalos (30 mg/kg i.p. on GD-8) was 1 (2.0) and the Eye open (30 mg/kg i.p. on GD-8) was 2 (3.9). For the same compound, the Kinky tail (30 mg/kg i.p. on GD-8) was 1 (2.0), the Mandible hypoplasia (30 mg/kg i.p. on GD-8) was 3 (5.9) and the Microtia/low set microtia (30 mg/kg i.p. on GD-8) was 2 (3.9). The Undescended testis (30 mg/kg i.p. on GD-8) was 0, the Maxilla hypoplasia (30 mg/kg i.p. on GD-8, * p < 0.05 vs control) was 2 (3.9)* and the Live fetus/litter (30 mg/kg i.p. on GD-8) was 7.286 (86.44). The Resorption/litter (30 mg/kg i.p. on GD-8) was 1.143 (13.56), the “Fetal weight Litter (g) (Mean ± SD)” value (30 mg/kg i.p. on GD-13) was 1.069 ± 0.082 g and the Fetuses/litter (30 mg/kg i.p. on GD-13) was 7.000 ± 1.155. For the same compound, the “Placental weight/Litter (g) (mean ± SD)” value (30 mg/kg i.p. on GD-13) was 0.103 ± 0.006 g, the “Placental weight, IUGR −2SD” value (30 mg/kg i.p. on GD-13) was 0 and the “Fetal weight, IUGR −2SD” value (30 mg/kg i.p. on GD-13) was 0.
